We go through 9 compounds from PubChem BioAssay AID2060506 (Molecular Pharmacology Branch, DTP, NCI, 2025).

Several values for one entry are separate records, joined by “and”; a condition that tells them apart may be missing. Equal values may be shown once. A value given as a limit tells only on which side of the number the result lay.

In the assay the test system is 598228-144-R-J1-PDC complex spheroid viability. Put plainly: Anticancer human tumor 598228-144-R-J1-PDC patient-derived serous endometrial adenocarcinoma cell line growth inhibition [GQUAD]. Conditions: for viability, T/C: stronger effect = lower value. The text has this:
DNA G-quadruplex Stabilizer Agents in Combinations in Complex Spheroids
A high-throughput screen of multi-cell type tumor spheroids was designed to identify active combinations of DNA G-quadruplex stabilizer agents and targeted small molecules. Complex spheroids include a stromal component modeled by human endothelial cells (HUVEC) and fibroblasts modeled by human mesenchymal stem cells (MSCs). The concentration ranges selected for each drug and investigational agent were based upon clinically achievable concentrations if the clinical Cmax of the agent was known.
Compounds. The drugs and investigational agents: pidnarulex (CX-5461; NSC782164), APTO-253 (NSC789042), BRACO-19 (NSC847499), peposertib (NSC802822), ceralasertib (NSC780249), elimusertib (NSC800525), camonsertib (NSC841442), AZD-1390 (NSC803789), olaparib (NSC753686), talazoparib (NSC767125), ART-558 (NSC835418), sotorasib (NSC818433), MRTX-1133 (NSC836407), SN-38 (NSC673596), topotecan (NSC609699), etoposide (NSC141540), doxorubicin (NSC123127), gemcitabine (NSC613327), 5-fluorouracil (NSC19893), paclitaxel (NSC125973), vemurafenib (NSC761431), panobinostat (NSC761190), R-306465 (JNJ-16241199; NSC773264), adavosertib (NSC754352), TP-3654 (NSC805149), carboplatin (NSC241240), KSQ-4279 (NSC840948), and staurosporine (NSC755774) were obtained from the National Cancer Institute (NCI) Developmental Therapeutics Program Chemical Repository (34). The FDA-approved anticancer drug set is available from the NCI Developmental Therapeutics Program. […] The stock solutions were prepared in dimethyl sulfoxide (DMSO, Sigma-Aldrich, St. Louis, MO, cat. D2650) at 800-fold the tested concentration and stored at -70 degrees C prior to their use. All drugs and investigational agents were tested over a range starting from a high concentration at or near the clinical Cmax and decreasing in half-log increments. If the clinical Cmax for an agent had not been determined, the highest concentration tested was 10 microM.
2.3 Cell Culture. All cells were maintained in an incubator at 37 degrees C and 5% CO2 with 95% humidity. The PDC lines were cultured according to standard operating procedures established by the NCI PDMR. All PDCs were thawed and cultured in Matrigel-coated flasks prepared with a working solution of 1X Ham's F-12 nutrient mix, without supplementation (Invitrogen, cat. 11765054), 100 U/mL penicillin-streptomycin (Invitrogen, cat. 15140122), and 2.5% Matrigel (Corning Inc., cat. 354248) for the first three passages. The 857933-349-R-J2-PDC line was cultured in 6C/Colon 1B media, which includes advanced DMEM/F-12 (Thermo Fisher Scientific, cat. 12634028), 10 mM HEPES (Thermo Fisher Scientific, cat. 15630080), 1X GlutaMAX supplement (Thermo Fisher Scientific, cat. 35050061), 0.1 mg/mL primocin (InvivoGen, cat. ant-pm-2), 10% defined fetal bovine serum, heat inactivated (HyClone Laboratories Inc., cat. SH30070.03HI), 50% L-WRN conditioned media (ATCC, cat. CRL-3276), 1.25 mM N-Acetyl-L-cysteine (Sigma-Aldrich, cat. A9165), 10 mM nicotinamide (Sigma-Aldrich, cat. N0636), 1X B-27 supplement (Thermo Fisher Scientific, cat. 17504044), 1X N-2 supplement (Thermo Fisher Scientific, cat. 17502048), 10 microM Y-27632 dihydrochloride (Tocris Bioscience, cat. 1254), and 50 ng/mL human EGF recombinant protein (Thermo Fisher Scientific, cat. PHG0311). The 485176-168-R4-J1-PDC line was cultured in Panc media, which includes all 6C/Colon 1B media components plus 100 ng/mL human FGF-10 (Thermo Fisher Scientific, cat. 100-26), 500 nM SB-431542 (Selleckchem, cat. S1067), and gastrin (Tocris, cat. 3006).
[…]
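Further: spheroids exposed to the agents for one week before reading.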
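Wherever viability, T/C is given: percent of vehicle DMSO control viability so 100% = untreated growth.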

As usually defined, the viability, T/C is the result in the treated group divided by that in the control group, in per cent. For orientation: IC50 means the concentration at which inhibition is half-maximal. Turning to `O=c1[nH]cc(F)c(=O)[nH]1`, the viability, T/C runs as follows: (compound 0.0316 µM) 133% and 103% and 95.3%; (compound 0.1 µM) 97.8% and 107% and 117%; (compound 0.316 µM) 85.5% and 104% and 88.7%; (compound 1 µM) 105% and 96.9% and 91.4%; (compound 3.16 µM) 97% and 95.8% and 105%; (compound 10 µM) 86.7% and 77.5% and 79.2%. For the same compound, for the setting “curve of compound”, the IC50 was above 10 µM.
For the compound `O=c1[nH]cc(F)c(=O)[nH]1` + CN(C)c1ccc(Nc2c3ccc(NC(=O)CCN4CCCC4)cc3nc3cc(NC(=O)CCN4CCCC4)ccc23)cc1, the IC50 was above 10 µM (curve of first compound, second compound 0.0316 µM); above 10 µM (curve of first compound, second compound 0.1 µM); above 10 µM (curve of first compound, second compound 0.316 µM); above 10 µM (curve of first compound, second compound 1 µM); above 10 µM (curve of first compound, second compound 3.16 µM); above 10 µM (curve of first compound, second compound 10 µM). Further, the viability, T/C was 121% (second compound 0.0316 µM, first compound 0.0316 µM); 95% (second compound 0.0316 µM, first compound 0.1 µM); 102% (second compound 0.0316 µM, first compound 0.316 µM); 91.3% (second compound 0.0316 µM, first compound 1 µM); 89.8% (second compound 0.0316 µM, first compound 3.16 µM); 90.8% (second compound 0.0316 µM, first compound 10 µM). The viability, T/C reads like this: (second compound 0.1 µM, first compound 0.0316 µM) 104%; (second compound 0.1 µM, first compound 0.1 µM) 106%; (second compound 0.1 µM, first compound 0.316 µM) 132%; (second compound 0.1 µM, first compound 1 µM) 100%; (second compound 0.1 µM, first compound 3.16 µM) 96.8%; (second compound 0.1 µM, first compound 10 µM) 65.5%. Also, the viability, T/C was 103% (second compound 0.316 µM, first compound 0.0316 µM); 105% (second compound 0.316 µM, first compound 0.1 µM); 104% (second compound 0.316 µM, first compound 0.316 µM); 108% (second compound 0.316 µM, first compound 1 µM); 104% (second compound 0.316 µM, first compound 3.16 µM); 97% (second compound 0.316 µM, first compound 10 µM). Further, the viability, T/C is 107% (second compound 1 µM, first compound 0.0316 µM); 112% (second compound 1 µM, first compound 0.1 µM); 106% (second compound 1 µM, first compound 0.316 µM); 99.1% (second compound 1 µM, first compound 1 µM); 111% (second compound 1 µM, first compound 3.16 µM); 81.5% (second compound 1 µM, first compound 10 µM). Moreover, the viability, T/C is, setting by setting: (second compound 3.16 µM, first compound 0.0316 µM) 81%; (second compound 3.16 µM, first compound 0.1 µM) 113%; (second compound 3.16 µM, first compound 0.316 µM) 127%; (second compound 3.16 µM, first compound 1 µM) 98.5%; (second compound 3.16 µM, first compound 3.16 µM) 125%; (second compound 3.16 µM, first compound 10 µM) 61.8%. The viability, T/C was 82.7% (second compound 10 µM, first compound 0.0316 µM); 71.3% (second compound 10 µM, first compound 0.1 µM); 95.4% (second compound 10 µM, first compound 0.316 µM); 88.7% (second compound 10 µM, first compound 1 µM); 88.5% (second compound 10 µM, first compound 3.16 µM); 64% (second compound 10 µM, first compound 10 µM).
With `Cc1[nH]c2ccccc2c1CCNCc1ccc(/C=C/C(=O)NO)cc1`, the viability, T/C is 109% and 102% and 101% (compound 0.000999 µM); 97.9% and 99.4% and 93.7% (compound 0.00316 µM); 108% and 97.5% and 99% (compound 0.00999 µM); 83.5% and 70.5% and 71.7% (compound 0.0316 µM); 27.5% and 29.3% and 38.2% (compound 0.0999 µM); 0.72% and 0.83% and 0.61% (compound 0.316 µM). Besides, the IC50 (curve of compound) was 0.0631 µM and 0.0565 µM and 0.0673 µM.
For the compound `C=CCn1c(=O)c2cnc(Nc3ccc(N4CCN(C)CC4)cc3)nc2n1-c1cccc(C(C)(C)O)n1`, the viability, T/C (compound 0.0316 µM) was 105% and 84.5% and 97.9%; the viability, T/C (compound 0.1 µM) was 81.6% and 94.9% and 101%; the viability, T/C (compound 0.316 µM) was 83% and 52.6% and 63%; the viability, T/C (compound 1 µM) is 46.9% and 51.9% and 42%; the viability, T/C (compound 3.16 µM) is 50.9% and 46.4% and 62.5%; the viability, T/C (compound 10 µM) is 45.4% and 49.7% and 66.2%.
Turning to `CC1COCCN1c1cc(-c2ccnn2C)c2ccnc(-c3ccn[nH]3)c2n1` (stereo not given), the viability, T/C was 76% and 72.5% and 81.6% (compound 0.0316 µM); 52.9% and 44.2% and 42.1% (compound 0.1 µM); 37.5% and 47.8% and 36.9% (compound 0.316 µM); 43.9% and 35.5% and 42.2% (compound 1 µM); 50% and 39.5% and 40.7% (compound 3.16 µM); 39.6% and 33.4% and 38.9% (compound 10 µM). Further, the IC50 (curve of compound) is 0.14 µM and 0.0916 µM and 0.079 µM.
In the case of `CC1COCCN1c1cc(C2(O)CC3CCC(C2)O3)c2cnn(-c3ccn[nH]3)c2n1` (stereo not given), the viability, T/C (compound 0.0316 µM) is 68.6% and 72.1% and 69.9%; the viability, T/C (compound 0.1 µM) was 40% and 42.8% and 48.9%; the viability, T/C (compound 0.316 µM) was 41.1% and 40% and 42.5%; the viability, T/C (compound 1 µM) is 33% and 40.1% and 34.1%; the viability, T/C (compound 3.16 µM) was 22.5% and 33.5% and 32.9%; the viability, T/C (compound 10 µM) is 11.1% and 15% and 15.1%. The half-maximal inhibitory concentration (IC50) (curve of compound) was 0.101 µM and 0.134 µM and 0.154 µM.
With `Cc1[nH]c2ccc(F)cc2c1-c1nc2c3cccnc3c3ncccc3c2[nH]1`, the viability, T/C is, setting by setting: (compound 0.0316 µM) 99.3% [middle of 12 runs]; (compound 3.16 µM) 46.7% [middle of 12 runs]; (compound 10 µM) 68.5% [middle of 12 runs]. For the same compound, the IC50 by setting is: (compound alone, run of 03/18/2024) > 10 µM and 3.62 µM; (compound alone, run of 03/26/2024) above 10 µM.
Consider `C=CC(=O)N1CCN(c2nc(=O)n(-c3c(C)ccnc3C(C)C)c3nc(-c4c(O)cccc4F)c(F)cc23)C(C)C1` (stereo not given), for which the viability, T/C reads like this: (compound 0.0316 µM) 89% and 91.5% and 95%; (compound 0.1 µM) 106% and 107% and 112%; (compound 0.316 µM) 102% and 127% and 100%; (compound 1 µM) 155% and 112% (2×); (compound 3.16 µM) 145% and 124% and 111%; (compound 10 µM) 113% and 108% and 106%. Moreover, the IC50 (curve of compound) is above 10 µM.
On to `CC[C@@]1(O)C(=O)OCc2c1cc1n(c2=O)Cc2cc3c(CN(C)C)c(O)ccc3nc2-1`, for which the viability, T/C by setting is: (compound 0.000999 µM) 116% and 95.5% and 102%; (compound 0.00316 µM) 96.2% and 89.7% and 95.8%; (compound 0.00999 µM) 128% and 70.9% and 96.4%; (compound 0.0316 µM) 94.6% and 72% and 86.3%; (compound 0.0999 µM) 68.6% and 55% and 64.9%; (compound 0.316 µM) 68.7% and 50.2% and 51.1%. For the same compound, where the note is “curve of compound”, the IC50 was > 0.316 µM and 0.305 µM.
